Results on one molecule are retold here after US11921105B2, “Method for identifying positive allosteric modulators for odorant receptors” (FIRMENICH SA, priority 2017, dated 2024).

Assay [1] has as its target T1, OR5AN1 olfactory receptor (Homo sapiens, UniProt Q8NGI8).
T1 construct: FLAG (N); Rho (first 20 aa of bovine rhodopsin) (N); expressed in transfected cells
T1 sequence (Q8NGI8 1-311): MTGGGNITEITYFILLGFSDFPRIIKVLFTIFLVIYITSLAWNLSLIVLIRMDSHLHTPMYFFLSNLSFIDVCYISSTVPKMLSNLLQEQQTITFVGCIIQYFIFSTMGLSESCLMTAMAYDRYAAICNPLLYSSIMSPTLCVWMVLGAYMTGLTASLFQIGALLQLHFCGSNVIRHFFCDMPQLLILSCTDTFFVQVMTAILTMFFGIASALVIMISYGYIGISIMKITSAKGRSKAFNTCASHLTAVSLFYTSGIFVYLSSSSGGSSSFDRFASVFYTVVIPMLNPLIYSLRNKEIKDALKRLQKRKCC
Put plainly: OR5AN1 dose-response of musk agonist with and without modulator, and of candidate alone (EC50 shift, span). Type of assay: cell-based. On the procedure: 15 candidates, marked as “enhancement” in Table 2 were identified. Strikingly, 80% of these putative enhancers (12/15) belonged to the same class of chemicals: unsaturated aliphatic aldehydes. Next, two parallel dose-response experiments to confirm the true enhancement properties of the potential candidates were performed. First, a dose-response of each individual candidate was performed to determine if it was an agonist by itself. Second, a MUSCENONE® dose-response curve in the presence and absence of a 250 μM concentration of the putative modulator was assessed for EC50 shifts.
Dose response curves to MUSCENONE® were obtained in the presence of 250 μM of each compound and compared to a dose-response curve of MUSCENONE® alone. The resulting enhancement was quantified by means of EC50-fold shift (potency increase) and the efficacy span ratio (efficacy increase).
The EC50-fold shift was obtained by […]. The span ratio was obtained by dividing the span of MUSCENONE®+compound by the reference span of MUSCENONE® alone. Specifically, diverse aliphatic α-β mono- or poly-unsaturated molecules have been compared.

The next assay has as its system human panelists. Nature of the assay: Human MUSCENONE® odor detection threshold (ODT), forced-choice triangle tests with background odor. The format is in vivo. The conditions noted are these: background compound at 0.1%; 2/3 correct responses. On the procedure: Sensitivity of human individuals to MUSCENONE® was evaluated by performing an odor detection threshold (ODT) test. The ODT test consisted of identifying the concentration for which 50%, preferably 66%, of the panelists are able to determine which of three containers contains the target compound MUSCENONE® in a forced-choice triangle tests. Two tests were performed to calculate the ODT in mixtures containing MUSCENONE® plus a perceivable background odor of chemically similar molecules a) the enhancer tridecylenic aldehyde and b) the non-enhancing volatile compound, nonanal.
27 panelists were given a series of triangle tests with increasing concentration of MUSCENONE® in the presence of nonanal at a concentration of 0.1%. Within each triangle test, the three samples contained nonanal at 0.1% and one sample also contained MUSCENONE®. In each triangle test, the panelists were asked to identify the one sample that was different from the other two samples. The ODT was calculated by fitting a non-linear regression model onto the data and calculating the MUSCENONE® concentration at which the proportion of correct responses was equal to 2/3 (66%, the midpoint between chance rate 1/3 and all correct answers 1). […]

For the next assay, the target named is T2, Olfr1440 (Mus musculus, UniProt Q8VFV4).
T2 construct: expressed in transfected cells
T2 sequence (Q8VFV4 1-315): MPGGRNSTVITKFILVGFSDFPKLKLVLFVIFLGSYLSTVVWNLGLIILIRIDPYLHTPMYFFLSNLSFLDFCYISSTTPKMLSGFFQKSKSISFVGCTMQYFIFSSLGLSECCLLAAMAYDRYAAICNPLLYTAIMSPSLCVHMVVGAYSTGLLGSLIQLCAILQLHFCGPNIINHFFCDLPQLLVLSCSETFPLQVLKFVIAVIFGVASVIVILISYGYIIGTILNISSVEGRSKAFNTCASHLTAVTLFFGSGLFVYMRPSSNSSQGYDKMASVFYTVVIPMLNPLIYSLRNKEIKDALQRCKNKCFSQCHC
Put plainly: Olfr1440 MUSCENONE®-induced activation in the presence of enhancer (control). The format is cell-based. Conditions: FIG. 5. On the procedure: Furthermore and as a control, a similar experiment was performed on the mouse MUSCENONE® responsive odorant receptor Olfr1440, the ortholog of OR5AN1.

Regarding `CCCCCCCCCC/C=C/C=O` [TDA, tridecylenic aldehyde], the “activation of OR5AN1 by the compound by itself” value in assay [1] (compound alone) is reported as “did not activate”. The “activation as % of the MUSCENONE® activation window” value in assay [1] (compound alone, above approximately 100 μM) was “less than 8%”. Further, in assay [1] (enhancer at 250 μM), the “maximal activation level (span) of MUSCENONE®” value was “increased span”. Moreover, the “MUSCENONE® ODT value when mixed with the compound” value with human panelists amounted to 0.09%. Also, at Olfr1440, the “enhancement of Olfr1440 MUSCENONE®-induced activity” value is on record as “did not enhance”.
